# PMC7096528, “Crystal structure of pathogenic Staphylococcus aureus lipase complex with the anti-obesity drug orlistat” (Scientific Reports, 2020)
# B1: Staphylococcus aureus lipase (SAL), native, mature form (enzyme)
# chain: ANQVQPLNKYPVVFVHGFLGLVGDNAPALYPNYWGGNKFKVIEELRKQGYNVHQASVSAFGSNYDRAVELYYYIKGGRVDYGAAHAAKYGHERYGKTYKGIMPNWEPGKKVHLVGHSMGGQTIRLMEEFLRNGNKEEIAYHKAHGGEISPLFTGGHNNMVASITTLATPHNGSQAADKFGNTEAVRKIMFALNRFMGNKYSNIDLGLTQWGFKQLPNESYIDYIKRVSKSKIWTSDDNAAYDLTLDGSAKLNNMTSMNPNITYTTYTGVSSHTGPLGYENPDLGTFFLMATTSRIIGHDAREEWRKNDGVVPVISSLHPSNQPFVNVTNDEPATRRGIWQVKPIIQGWDHVDFIGVDFLDFKRKGAELANFYTGIINDLLRVEATESKGTQLKAS
# notes: Staphylococcus aureus lipase (glycerol ester hydrolase), mature form of 394 residues processed from the prepolypeptide of 690 residues; numbers count on: the mature protein; Residues 4-385 are visible in the crystal; The pCold II vector is surmised to add the His tag at the N-terminus; also called SA lipase; glycerol ester hydrolase; source: E. coli, purified (three-step chromatography, …)
# What was measured:
# [1] = target: T1, Staphylococcus aureus lipase (SAL, glycerol ester hydrolase) (Staphylococcus aureus, UniProt A0A0U1MWF9); assay: co-crystal structure at […] Å; IC50 from purified-enzyme p-nitrophenyl butyrate hydrolysis assay; type: biochemical
# T1 construct: gene lip; mature form containing 394 amino acid residues (recombinant, His-tagged; residues 4–385 determined in the native structure)
# [2] = target: the molecule itself; assay: SEC; Superdex 200 Increase 10/300 GL, 10 mg/mL SAL injected at 20 °C, 50 mM Tris-HCl pH 7.5, 0.2 M NaCl, 0.5 ml/min, BSA as standard for calibration
# T1 sequence (A0A0U1MWF9 entry or part of it): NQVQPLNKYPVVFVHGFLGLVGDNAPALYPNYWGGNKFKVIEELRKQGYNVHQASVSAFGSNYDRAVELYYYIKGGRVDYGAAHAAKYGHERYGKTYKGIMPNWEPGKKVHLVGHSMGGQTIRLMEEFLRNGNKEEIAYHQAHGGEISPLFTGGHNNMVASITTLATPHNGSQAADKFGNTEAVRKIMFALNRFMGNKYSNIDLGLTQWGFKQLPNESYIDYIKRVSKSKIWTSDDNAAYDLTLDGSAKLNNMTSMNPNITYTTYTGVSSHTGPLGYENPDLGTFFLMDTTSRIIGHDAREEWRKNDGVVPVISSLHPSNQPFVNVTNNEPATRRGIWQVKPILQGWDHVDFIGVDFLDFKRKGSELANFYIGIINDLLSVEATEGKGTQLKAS
Molecule,IC50 [1] [µM],stoichiometry N [2]
CCCCCCCCCCC[C@@H](C[C@@H]1OC(=O)[C@H]1CCCCCC)OC(=O)[C@H](CC(C)C)NC=O [orlistat],2.4,
B1,,2
